Laboratory results: patent US20260274837A1, “PESTICIDALLY ACTIVE HETEROCYCLIC DERIVATIVES WITH SULFUR CONTAINING SUBSTITUENTS” (SYNGENTA CROP PROTECTION AG, priority 2023, published 2026)

How the values were obtained:
Assay type in all cases: in vivo
Chilo suppressalis = assay: Activity against Chilo suppressalis (striped rice stemborer), artificial diet in 24-well plates; conditions: 144 h, application rate 200 ppm, L2 larvae, assessed 6 days after infestation vs untreated, read-out: control (at least one of mortality, anti-feedant effect, growth inhibition)
Protocol: Example B1: Activity Against Chilo suppressalis (Striped Rice Stemborer)
24-well microtiter plates with artificial diet were treated with aqueous test solutions prepared from 10′000 ppm DMSO stock solutions by pipetting. After drying, the plates were infested with L2 larvae (6-8 per well). The samples were assessed for mortality, anti-feeding effect, and growth inhibition in comparison to untreated samples 6 days after infestation. Control of Chilo suppressalis by a test sample is given when at least one of the categories mortality, anti-feedant effect, and growth inhibition is higher than the untreated sample.

Diabrotica balteata = assay: Activity against Diabrotica balteata (corn root worm), sprayed maize sprouts on agar; conditions: 96 h, application rate 200 ppm, L2 larvae, assessed 4 days after infestation vs untreated, read-out: effect in at least one of the two categories (mortality or growth inhibition)
Protocol: Example B2: Activity Against Diabrotica Balteata (Corn Root Worm)
Maize sprouts placed onto an agar layer in 24-well microtiter plates were treated with aqueous test solutions prepared from 10′000 ppm DMSO stock solutions by spraying. After drying, the plates were infested with L2 larvae (6 to 10 per well). The samples were assessed for mortality and growth inhibition in comparison to untreated samples 4 days after infestation.

Plutella xylostella = assay: Activity against Plutella xylostella (diamond back moth), artificial diet in 24-well plates; conditions: 192 h, application rate 200 ppm, eggs, assessed 8 days after infestation vs untreated, read-out: effect in at least one of the two categories (mortality or growth inhibition)
Protocol: Example B3: Activity Against Plutella xylostella (Diamond Back Moth)
24-well microtiter plates with artificial diet were treated with aqueous test solutions prepared from 10′000 ppm DMSO stock solutions by pipetting. After drying, Plutella eggs were pipetted through a plastic stencil onto a gel blotting paper and the plate was closed with it. The samples were assessed for mortality and growth inhibition in comparison to untreated samples 8 days after infestation.

Spodoptera littoralis = assay: Activity against Spodoptera littoralis (Egyptian cotton leaf worm), sprayed cotton leaf discs; conditions: foliar, 72 h, application rate 200 ppm, L1 larvae, assessed 3 days after infestation vs untreated, read-out: control (at least one of mortality, anti-feedant effect, growth inhibition)
Protocol: Example B4: Activity Against Spodoptera littoralis (Egyptian Cotton Leaf Worm)
Cotton leaf discs were placed onto agar in 24-well microtiter plates and sprayed with aqueous test solutions prepared from 10′000 ppm DMSO stock solutions. After drying the leaf discs were infested with five L1 larvae. The samples were assessed for mortality, anti-feeding effect, and growth inhibition in comparison to untreated samples 3 days after infestation. Control of Spodoptera littoralis by a test sample is given when at least one of the categories mortality, anti-feedant effect, and growth inhibition is higher than the untreated sample.

CCS(=O)(=O)c1c(-c2coc3cc(C(F)(F)F)ccc3c2=O)nc2cc(C(F)(F)F)ccn12 [P.1, 3-[3-ethylsulfonyl-7-(trifluoromethyl)imidazo[1,2-a]pyridin-2-yl]-7-(trifluoromethyl)chromen-4-one]
≥ 80%: percent control (mortality, anti-feedant effect or growth inhibition) at 200 ppm (Chilo suppressalis) | percent effect (mortality or growth inhibition) at 200 ppm (Diabrotica balteata) | percent effect (mortality or growth inhibition) at 200 ppm (Plutella xylostella) | percent control (mortality, anti-feedant effect or growth inhibition) at 200 ppm (Spodoptera littoralis)
